Values of other authors as cited in patent US20180117080A1, “COMPOSITIONS AND METHODS FOR TREATING SKIN CONDITIONS” (priority 2015, published 2018).

For [Cl-].[K+] [KCl, Potassium Chloride], the “g/L Water Solubility 20c” value is given as 344 g/L.
